Earlier results on 1 substance are cited in patent publication US9913917B2, “Biocompatible fluorescent metal oxide nanoparticles” (VisEn Medical, Inc., priority 2005, dated 2018).

The conditions of the data set: free fluorochrome.

As for Cy5.5, the Absorbance max is 675 nm and the εmax is listed as 250,000 M^−1cm^−1.
